These results are taken from ChEMBL document CHEMBL4680207, “The discovery, design and synthesis of potent agonists of adenylyl cyclase type 2 by virtual screening combining biological evaluation” (Eur J Med Chem, 2020).

A word on the EC50: it is the concentration that produces a half-maximal response.

Assay [1] deals with T1, Adenylate cyclase type 2 (Homo sapiens, UniProt Q08462). The assay is described as follows: Agonist activity at recombinant human AC2 expressed in HEK293 cells assessed as increase in cAMP level by measuring cAMP level at 50 uM measured after 30 mins by LANCE Ultra cAMP Detection kit method relative to control. It is filed as cell-based.
The target in assay [2] is T1, Adenylate cyclase type 2. The assay is described as follows: Agonist activity at recombinant human AC2 expressed in HEK293 cells assessed as increase in cAMP level measured after 30 mins by LANCE Ultra cAMP Detection kit method. It counts as cell-based.

T1 sequence (Q08462 whole entry): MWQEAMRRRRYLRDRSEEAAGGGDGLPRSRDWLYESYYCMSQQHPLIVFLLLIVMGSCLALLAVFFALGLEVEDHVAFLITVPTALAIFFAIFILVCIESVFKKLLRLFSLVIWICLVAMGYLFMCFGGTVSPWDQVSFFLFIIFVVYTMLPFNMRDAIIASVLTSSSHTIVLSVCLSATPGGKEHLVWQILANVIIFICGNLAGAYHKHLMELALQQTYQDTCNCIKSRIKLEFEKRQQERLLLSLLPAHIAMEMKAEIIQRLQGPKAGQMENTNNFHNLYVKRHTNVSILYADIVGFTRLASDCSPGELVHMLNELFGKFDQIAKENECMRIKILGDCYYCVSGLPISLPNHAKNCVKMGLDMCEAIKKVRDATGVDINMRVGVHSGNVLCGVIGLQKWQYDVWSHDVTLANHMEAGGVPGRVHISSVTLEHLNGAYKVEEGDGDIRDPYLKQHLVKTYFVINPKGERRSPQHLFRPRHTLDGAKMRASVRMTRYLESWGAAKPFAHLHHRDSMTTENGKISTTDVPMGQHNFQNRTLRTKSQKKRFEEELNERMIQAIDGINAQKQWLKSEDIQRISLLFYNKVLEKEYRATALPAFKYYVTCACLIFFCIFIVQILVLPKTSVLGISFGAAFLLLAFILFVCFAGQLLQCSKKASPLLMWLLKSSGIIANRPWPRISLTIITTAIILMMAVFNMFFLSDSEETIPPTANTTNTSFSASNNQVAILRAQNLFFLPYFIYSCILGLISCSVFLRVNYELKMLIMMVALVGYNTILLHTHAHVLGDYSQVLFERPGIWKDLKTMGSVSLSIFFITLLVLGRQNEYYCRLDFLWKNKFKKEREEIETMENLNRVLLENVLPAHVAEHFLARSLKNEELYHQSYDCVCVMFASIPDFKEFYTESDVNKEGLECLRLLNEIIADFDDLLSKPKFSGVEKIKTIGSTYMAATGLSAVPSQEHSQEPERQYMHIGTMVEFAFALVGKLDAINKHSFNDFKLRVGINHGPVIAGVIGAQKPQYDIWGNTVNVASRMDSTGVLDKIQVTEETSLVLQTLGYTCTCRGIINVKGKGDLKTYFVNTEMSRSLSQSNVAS

Regarding `Cc1ccccc1[C@H]1OC2(C(=O)c3ccccc3C2=O)[C@H]2C(=O)N(c3ccccc3Cl)C(=O)[C@@H]12`, the Activity in assay [1] was found to be 30.7%. For the compound `CCC[C@H]1OC2(C(=O)c3ccccc3C2=O)[C@H]2C(=O)N(c3ccccc3Cl)C(=O)[C@@H]12`, in assay [1] (filed as agonist), the Activity came out at 59.6%. In addition, the 50% effective concentration (EC50) in assay [2] came out at 4290 nM.

On to `CCOc1ccc([C@H]2OC3(C(=O)c4ccccc4C3=O)[C@H]3C(=O)N(c4ccc(C)cc4)C(=O)[C@@H]23)cc1`, for which the Activity in assay [1] (filed as agonist) turned out to be 100%. In addition, in assay [2], the concentration for a half-maximal effect (EC50) was found to be 24800 nM.

Consider `CC(C)c1ccc([C@H]2OC3(C(=O)c4ccccc4C3=O)[C@H]3C(=O)N(c4ccc(F)cc4)C(=O)[C@@H]23)cc1`, for which the Activity in assay [1] (filed as agonist) worked out at 89.3%. For the same compound, the EC50 in assay [2] was found to be 1300 nM. `COc1cccc(N2C(=O)[C@H]3[C@@H](c4ccc(C)cc4)OC4(C(=O)c5ccccc5C4=O)[C@H]3C2=O)c1`: in assay [1] (filed as agonist), the Activity came to 84.6%. Besides, the EC50 in assay [2] came out at 960 nM.

Take `CC(C)[C@H]1OC2(C(=O)c3ccccc3C2=O)[C@H]2C(=O)N(c3ccccc3Cl)C(=O)[C@@H]12`: in assay [1], the Activity amounted to 27.2%. Regarding `Cc1cccc([C@H]2OC3(C(=O)c4ccccc4C3=O)[C@H]3C(=O)N(c4cccc(C)c4)C(=O)[C@@H]23)c1`, the Activity in assay [1] (filed as agonist) was 84.7%.

On to `Cc1cc(C)cc(N2C(=O)[C@H]3[C@@H](c4ccc(Cl)cc4)OC4(C(=O)c5ccccc5C4=O)[C@H]3C2=O)c1`, for which the Activity in assay [1] (filed as agonist) was found to be 96.9%. Also, the EC50 in assay [2] is 310 nM. Consider `Cc1ccc([C@H]2OC3(C(=O)c4ccccc4C3=O)[C@H]3C(=O)N(C4CCCCC4)C(=O)[C@@H]23)cc1`, for which, in assay [1] (filed as agonist), the Activity was 69.5%. In addition, the EC50 in assay [2] stood at 1290 nM. `CC/C=C(\CCC)[C@H]1OC2(C(=O)c3ccccc3C2=O)[C@H]2C(=O)N(c3ccccc3Cl)C(=O)[C@@H]12`: the Activity in assay [1] (filed as agonist) was found to be 44.5%. Take `O=C1[C@H]2[C@@H](Cc3ccccc3)OC3(C(=O)c4ccccc4C3=O)[C@H]2C(=O)N1c1ccccc1Cl`: the Activity in assay [1] stood at 0%.

With `Cc1ccc([C@H]2OC3(C(=O)c4ccccc4C3=O)[C@H]3C(=O)N(c4ccc(C)c(Cl)c4)C(=O)[C@@H]23)cc1`, in assay [1] (filed as agonist), the Activity worked out at 96.4%. For the same compound, the 50% effective concentration (EC50) in assay [2] worked out at 750 nM. The corresponding values for `Cc1ccc([C@H]2OC3(C(=O)c4ccc(F)cc4C3=O)[C@H]3C(=O)N(c4ccccc4Cl)C(=O)[C@@H]23)cc1` (mixture of isomers) are 80.8% and 692 nM.

Take `Cc1ccc([C@H]2OC3(C(=O)c4ccccc4C3=O)[C@H]3C(=O)N(C(C)(C)C)C(=O)[C@@H]23)cc1`: the Activity in assay [1] came to 31%. Turning to `CCc1ccc([C@H]2OC3(C(=O)c4ccccc4C3=O)[C@H]3C(=O)N(c4ccc(C)cc4)C(=O)[C@@H]23)cc1`, the Activity in assay [1] (filed as agonist) was determined as 95.9%. In assay [2], the EC50 was 670 nM. `CCOc1ccc(N2C(=O)[C@H]3[C@@H](c4ccc(C)cc4)OC4(C(=O)c5ccccc5C4=O)[C@H]3C2=O)cc1`: in assay [1] (filed as agonist), the Activity came to 97.7%. In addition, the concentration giving a half-maximal response (EC50) in assay [2] was 10800 nM. The corresponding values for `Cc1ccc([C@H]2OC3(C(=O)c4ccccc4C3=O)[C@H]3C(=O)N(C(C)C)C(=O)[C@@H]23)cc1` are 59% and 7340 nM. As to `Cc1ccc([C@H]2OC3(C(=O)c4ccc(C)cc4C3=O)[C@H]3C(=O)N(c4ccccc4Cl)C(=O)[C@@H]23)cc1` (mixture of isomers), the Activity in assay [1] (filed as agonist) stood at 98.1%. Besides, the EC50 in assay [2] was 300 nM. Consider `COc1ccc(OC)c(N2C(=O)[C@H]3[C@@H](c4ccc(C)cc4)OC4(C(=O)c5ccccc5C4=O)[C@H]3C2=O)c1`, for which, in assay [1] (filed as agonist), the Activity came to 103%. The EC50 in assay [2] is 1200 nM.

In the case of `Cc1ccc([C@H]2OC3(C(=O)c4ccccc4C3=O)[C@H]3C(=O)N(CC(C)C)C(=O)[C@@H]23)cc1`, the Activity in assay [1] (filed as agonist) is 56.7%. As for `COc1cccc([C@H]2OC3(C(=O)c4ccccc4C3=O)[C@H]3C(=O)N(c4ccc(C)cc4)C(=O)[C@@H]23)c1`, in assay [1] (filed as agonist), the Activity was found to be 97.8%. In addition, in assay [2], the EC50 was 1600 nM. Turning to `CC(C)=C[C@H]1OC2(C(=O)c3ccccc3C2=O)[C@H]2C(=O)N(c3ccccc3Cl)C(=O)[C@@H]12`, the Activity in assay [1] (filed as agonist) was 44.7%. In the case of `CCOc1ccc(N2C(=O)[C@H]3[C@@H](c4ccc(F)cc4)OC4(C(=O)c5ccccc5C4=O)[C@H]3C2=O)cc1`, the Activity in assay [1] (filed as agonist) stood at 91%. In addition, in assay [2], the 50% effective concentration (EC50) was determined as 39300 nM.

`Cc1cc(C)cc(N2C(=O)[C@H]3[C@@H](c4ccccc4Cl)OC4(C(=O)c5ccccc5C4=O)[C@H]3C2=O)c1`: the Activity in assay [1] was 7.14%. On to `COc1ccc([C@H]2OC3(C(=O)c4ccccc4C3=O)[C@H]3C(=O)N(c4ccccc4F)C(=O)[C@@H]23)cc1`, for which the Activity in assay [1] worked out at 0.25%. `Cc1ccc([C@H]2OC3(C(=O)c4cccc(F)c4C3=O)[C@H]3C(=O)N(c4ccccc4Cl)C(=O)[C@@H]23)cc1` (mixture of isomers): the Activity in assay [1] (filed as agonist) worked out at 59.1%. The concentration giving a half-maximal response (EC50) in assay [2] worked out at 345 nM.

Regarding `COc1cc(C)ccc1N1C(=O)[C@H]2[C@@H](c3cccc(C)c3)OC3(C(=O)c4ccccc4C3=O)[C@H]2C1=O`, the Activity in assay [1] (filed as agonist) was determined as 103%. Further, the EC50 in assay [2] was 5960 nM. In the same order, the values of `CCc1ccc(N2C(=O)[C@H]3[C@@H](c4ccc(Cl)cc4)OC4(C(=O)c5ccccc5C4=O)[C@H]3C2=O)cc1` are 102% and 430 nM. In the case of `O=C1[C@H]2[C@@H](C3CCCCC3)OC3(C(=O)c4ccccc4C3=O)[C@H]2C(=O)N1c1ccccc1Cl`, in assay [1] (filed as agonist), the Activity was 55.6%.

As for `Cc1ccc([C@H]2OC3(C(=O)c4cccc(C)c4C3=O)[C@H]3C(=O)N(c4ccccc4Cl)C(=O)[C@@H]23)cc1` (mixture of isomers), the Activity in assay [1] (filed as agonist) came to 59.3%. In addition, the 50% effective concentration (EC50) in assay [2] stood at 1080 nM. For `Cc1ccc([C@H]2OC3(C(=O)c4ccccc4C3=O)[C@H]3C(=O)N(c4ccc(C)cc4F)C(=O)[C@@H]23)cc1`, the Activity in assay [1] (filed as agonist) was found to be 107%. The half-maximal effective concentration (EC50) in assay [2] was 770 nM. As to `O=C1[C@H]2[C@@H](c3ccc(Cl)cc3)OC3(C(=O)c4ccccc4C3=O)[C@H]2C(=O)N1c1ccc(F)cc1`, in assay [1] (filed as agonist), the Activity was found to be 100%. Besides, the EC50 in assay [2] is 530 nM. For `CC[C@H]1OC2(C(=O)c3ccccc3C2=O)[C@H]2C(=O)N(c3ccccc3Cl)C(=O)[C@@H]12`, the Activity in assay [1] came to 0%.

For `Cc1ccc([C@H]2OC3(C(=O)c4ccc(Cl)cc4C3=O)[C@H]3C(=O)N(c4ccccc4Cl)C(=O)[C@@H]23)cc1` (mixture of isomers), the Activity in assay [1] (filed as agonist) is 96.2%. In assay [2], the EC50 was determined as 236 nM. On to `Cc1ccc(N2C(=O)[C@H]3[C@@H](c4cccc(Cl)c4)OC4(C(=O)c5ccccc5C4=O)[C@H]3C2=O)cc1`, for which the Activity in assay [1] (filed as agonist) stood at 97.9%. For the same compound, in assay [2], the 50% effective concentration (EC50) is 5050 nM. With `Cc1ccc([C@H]2OC3(C(=O)c4ccccc4C3=O)[C@H]3C(=O)N(C4CC4)C(=O)[C@@H]23)cc1`, the Activity in assay [1] (filed as agonist) worked out at 70.8%. Besides, in assay [2], the half-maximal effective concentration (EC50) stood at 3370 nM.

With `Cc1ccc([C@H]2OC3(C(=O)c4ccccc4C3=O)[C@H]3C(=O)N(c4ccccc4Cl)C(=O)[C@@H]23)cc1`, the Activity in assay [1] (filed as agonist) was determined as 93.6%. Further, the EC50 in assay [2] is 170 nM. For the compound `O=C1[C@H]2[C@@H](C3CC3)OC3(C(=O)c4ccccc4C3=O)[C@H]2C(=O)N1c1ccccc1Cl`, the Activity in assay [1] is 0%. Turning to `Cc1ccc([C@H]2OC3(C(=O)c4ccccc4C3=O)[C@H]3C(=O)N(C4CCC4)C(=O)[C@@H]23)cc1`, in assay [1], the Activity was determined as 0%.

As for `Cc1ccc([C@H]2OC3(C(=O)c4ccccc4C3=O)[C@H]3C(=O)N(c4ccc(F)c(Cl)c4)C(=O)[C@@H]23)cc1`, in assay [1] (filed as agonist), the Activity worked out at 103%. In assay [2], the EC50 worked out at 520 nM. Take `CCOc1ccc(N2C(=O)[C@H]3[C@@H](c4ccccc4)OC4(C(=O)c5ccccc5C4=O)[C@H]3C2=O)cc1`: the Activity in assay [1] (filed as agonist) was 82.3%. For the same compound, the EC50 in assay [2] amounted to 32300 nM. For the compound `Cc1ccc([C@H]2OC3(C(=O)c4ccccc4C3=O)[C@H]3C(=O)N(c4ccc(F)cc4)C(=O)[C@@H]23)cc1`, the Activity in assay [1] (filed as agonist) worked out at 99.5%. Moreover, the EC50 in assay [2] is 1640 nM. As for `O=C1[C@H]2[C@@H](CCc3ccccc3)OC3(C(=O)c4ccccc4C3=O)[C@H]2C(=O)N1c1ccccc1Cl`, the Activity in assay [1] was 32%.

In the case of `Cc1ccc([C@H]2OC3(C(=O)c4cccc(Br)c4C3=O)[C@H]3C(=O)N(c4ccccc4Cl)C(=O)[C@@H]23)cc1` (mixture of isomers), the Activity in assay [1] (filed as agonist) was determined as 76%. Further, the EC50 in assay [2] is 11600 nM. The corresponding values for `Cc1ccc([C@H]2OC3(C(=O)c4ccccc4C3=O)[C@H]3C(=O)N(C4CCCC4)C(=O)[C@@H]23)cc1` are 64.9% and 3440 nM. As for `COc1ccc(N2C(=O)[C@H]3[C@@H](c4ccc(C)cc4)OC4(C(=O)c5ccccc5C4=O)[C@H]3C2=O)cc1`, the Activity in assay [1] (filed as agonist) came to 93.6%. Further, in assay [2], the 50% effective concentration (EC50) was determined as 17100 nM.

For the compound `Cc1ccc([C@H]2OC3(C(=O)c4ccccc4C3=O)[C@H]3C(=O)N(C)C(=O)[C@@H]23)cc1`, in assay [1] (filed as agonist), the Activity came out at 62%. The 50% effective concentration (EC50) in assay [2] was 3080 nM. Consider `Cc1ccc([C@H]2OC3(C(=O)c4cccc(Cl)c4C3=O)[C@H]3C(=O)N(c4ccccc4Cl)C(=O)[C@@H]23)cc1` (mixture of isomers), for which the Activity in assay [1] (filed as agonist) worked out at 88.5%. Moreover, the half-maximal effective concentration (EC50) in assay [2] was determined as 301 nM. In the case of `Cc1cccc([C@H]2OC3(C(=O)c4ccccc4C3=O)[C@H]3C(=O)N(c4ccccc4Cl)C(=O)[C@@H]23)c1`, the Activity in assay [1] (filed as agonist) turned out to be 57.4%. Also, the EC50 in assay [2] was determined as 6810 nM.

As for `O=C1[C@H]2[C@@H](c3ccc4ccccc4c3)OC3(C(=O)c4ccccc4C3=O)[C@H]2C(=O)N1c1ccccc1Cl`, the Activity in assay [1] was determined as 0%. `O=C1[C@H]2[C@@H](c3ccc(-c4ccccc4)cc3)OC3(C(=O)c4ccccc4C3=O)[C@H]2C(=O)N1c1ccccc1Cl`: in assay [1], the Activity is 5.04%.

Take `O=C1[C@H]2[C@@H](c3ccccc3)OC3(C(=O)c4ccccc4C3=O)[C@H]2C(=O)N1c1ccc(Cl)cc1`: the Activity in assay [1] (filed as agonist) is 91.5%. Besides, in assay [2], the concentration for a half-maximal effect (EC50) came to 2060 nM. With `CCc1ccccc1N1C(=O)[C@H]2[C@@H](c3ccccc3Cl)OC3(C(=O)c4ccccc4C3=O)[C@H]2C1=O`, in assay [1], the Activity was found to be 20%. On to `Cc1ccc(N2C(=O)[C@H]3[C@@H](c4ccccc4)OC4(C(=O)c5ccccc5C4=O)[C@H]3C2=O)cc1Cl`, for which the Activity in assay [1] (filed as agonist) came to 80.3%.
